Several values for one entry are separate records, joined by “and”; a condition that tells them apart may be missing. Equal values may be shown once.
Test system: subjects with narcolepsy type-1 (NT1)
Experiment: Part 4 POC NT1: treatment-emergent adverse events, single doses, crossover
Assay type: in vivo, human
Procedure: Subjects were randomized to 1 of 4 sequences.
Each subject received three doses of Compound A, including 1, 3, and 8 mg, and a single dose of placebo. […] All subjects underwent the washout period and completed all 4-way randomized crossover periods.
With one exception, each subject received three doses of Compound A, including 1, 3, and 8 mg, and a single dose of placebo. One patient withdrew from the study after the first dose due to venous access complications. […] With the exception of one patient as noted above, all subjects underwent the washout period and completed all 4-way randomized crossover periods.

CS(=O)(=O)N[C@H]1CCCN2C(=O)COc3ccccc3C3CCC(CC3)OCC12 (stereo partly drawn) [Compound A, N-[(4S,4aR,7α,10α)-1,2,3,4,4a,5,7,8,9,10,16,17-dodecahydro-17-oxo-7,10-ethanopyrido[1,2-d][1,7,4]benzodioxaazacyclotridecin-4-yl]methanesulfonamide]
4 (100) n (%) and 4 n (%): Any TEAE (8 mg (N = 4)) | Any TEAE (Total (N = 4))
3 n (%): TEAE Insomnia (8 mg (N = 4)) | TEAE Insomnia (Total (N = 4))
4 (40.0) n (%): TEAE Pollakiuria (8 mg (N = 10)) | TEAE Pollakiuria (Total (N = 10))
9 (90.0) n (%): Any TEAE (8 mg (N = 10)) | TEAE by Highest Relationship: Related (8 mg (N = 10)) | Any TEAE (Total (N = 10))
0 n (%): TEAE by Highest Severity: Moderate (3 mg (N = 9)) | TEAE by Highest Severity: Severe (3 mg (N = 9)) | AE Leading to Study Drug Discontinuation (8 mg (N = 4)) | Any SAEs (8 mg (N = 4)) | Death (8 mg (N = 4)) | TEAE Anaemia (8 mg (N = 4)) | TEAE Dermatitis contact (8 mg (N = 4)) | TEAE Hyperlipidaemia (8 mg (N = 4)) | TEAE Procedural anxiety (8 mg (N = 4)) | TEAE Vascular access site injury (8 mg (N = 4)) | TEAE Vessel puncture site bruise (8 mg (N = 4)) | TEAE by Highest Relationship: Not Related (8 mg (N = 4)) | TEAE by Highest Severity: Moderate (8 mg (N = 4)) | TEAE by Highest Severity: Severe (8 mg (N = 4)) | AE Leading to Study Drug Discontinuation (8 mg (N = 10)) | Any SAEs (8 mg (N = 10)) | Death (8 mg (N = 10)) | TEAE Anaemia (8 mg (N = 10)) | TEAE Dehydration (8 mg (N = 10)) | TEAE Dermatitis contact (8 mg (N = 10)) | TEAE Headache (8 mg (N = 10)) | TEAE Hyperlipdaemia (8 mg (N = 10)) | TEAE Vascular access site injury (8 mg (N = 10)) | TEAE by Highest Relationship: Not Related (8 mg (N = 10)) | TEAE by Highest Severity: Severe (8 mg (N = 10)) | AE Leading to Study Drug Discontinuation (Total (N = 4)) | Any SAEs (Total (N = 4)) | Death (Total (N = 4)) | TEAE Anaemia (Total (N = 4)) | TEAE Hyperlipidaemia (Total (N = 4)) | TEAE by Highest Relationship: Not Related (Total (N = 4)) | TEAE by Highest Severity: Moderate (Total (N = 4)) | TEAE by Highest Severity: Severe (Total (N = 4)) | TEAE Anaemia (Total (N = 10)) | TEAE Headache (Total (N = 10)) | TEAE Hyperlipdaemia (Total (N = 10))
3 (30.0) n (%): TEAE Insomnia (8 mg (N = 10)) | TEAE Middle Insomnia (8 mg (N = 10)) | TEAE Salivary hypersecretion (8 mg (N = 10)) | TEAE Insomnia (Total (N = 10)) | TEAE Middle Insomnia (Total (N = 10)) | TEAE Salivary hypersecretion (Total (N = 10)) | TEAE Vessel puncture site bruise (Total (N = 10))
8 (80.0) n (%): TEAE by Highest Severity: Mild (8 mg (N = 10))
3 (33.3) n (%): TEAE by Highest Relationship: Related (3 mg (N = 9))
4 (100) n (%): TEAE by Highest Relationship: Related (8 mg (N = 4)) | TEAE by Highest Severity: Mild (8 mg (N = 4)) | TEAE by Highest Relationship: Related (Total (N = 4)) | TEAE by Highest Severity: Mild (Total (N = 4))
2 n (%): TEAE Pollakiuria (8 mg (N = 4)) | TEAE Salivary hypersecretion (8 mg (N = 4)) | TEAE Application site dermatitis (Total (N = 4)) | TEAE Pollakiuria (Total (N = 4)) | TEAE Salivary hypersecretion (Total (N = 4))
2 (20.0) n (%): TEAE Dizziness (8 mg (N = 10)) | TEAE Nausea (8 mg (N = 10)) | TEAE Vessel puncture site bruise (8 mg (N = 10)) | TEAE Vessel puncture site pain (8 mg (N = 10)) | TEAE Application site dermatitis (Total (N = 10)) | TEAE Decreased appetite (Total (N = 10)) | TEAE Dermatitis contact (Total (N = 10)) | TEAE Dizziness (Total (N = 10)) | TEAE Nausea (Total (N = 10)) | TEAE Vessel puncture site pain (Total (N = 10))
1 (10.0) n (%): TEAE Application site dermatitis (8 mg (N = 10)) | TEAE Back pain (8 mg (N = 10)) | TEAE Blood pressure increased (8 mg (N = 10)) | TEAE Bruxism (8 mg (N = 10)) | TEAE Decreased appetite (8 mg (N = 10)) | TEAE Haemoglobin decreased (8 mg (N = 10)) | TEAE Hyperhidrosis (8 mg (N = 10)) | TEAE Sinus tachycardia (8 mg (N = 10)) | TEAE by Highest Severity: Moderate (8 mg (N = 10)) | TEAE Back pain (Total (N = 10)) | TEAE Blood pressure increased (Total (N = 10)) | TEAE Bruxism (Total (N = 10)) | TEAE Dehydration (Total (N = 10)) | TEAE Haemoglobin decreased (Total (N = 10)) | TEAE Hyperhidrosis (Total (N = 10)) | TEAE Sinus tachycardia (Total (N = 10)) | TEAE Vascular access site injury (Total (N = 10))
well tolerated: Tolerability (NT1, 1, 3 and 8 mg)
1 n (%): TEAE Application site dermatitis (8 mg (N = 4)) | TEAE Blood pressure increased (8 mg (N = 4)) | TEAE Bruxism (8 mg (N = 4)) | TEAE Dizziness (8 mg (N = 4)) | TEAE Hyperhidrosis (8 mg (N = 4)) | TEAE Blood pressure increased (Total (N = 4)) | TEAE Bruxism (Total (N = 4)) | TEAE Dermatitis contact (Total (N = 4)) | TEAE Dizziness (Total (N = 4)) | TEAE Hyperhidrosis (Total (N = 4)) | TEAE Procedural anxiety (Total (N = 4)) | TEAE Vascular access site injury (Total (N = 4)) | TEAE Vessel puncture site bruise (Total (N = 4))
5 (55.6) n (%): TEAE by Highest Severity: Mild (3 mg (N = 9))

— patent publication US20250186405A1, “Compound For Use In Treating Narcolepsy” (Alkermes, Inc., priority 2023, published 2025)
